Patent US20230313181A1, “HISTIDINE-LYSINE POLYMERS AND METHODS FOR DELIVERING MRNA USING THE SAME” (UNIVERSITY OF MARYLAND, BALTIMORE, priority 2019, published 2023)
Bridges are numbered along the chain shown (N, C = ends). Roman numbers before positions name the chains, in order. Where no end group is shown, it is not given here.

Columns and labels:
MDA-MB-231 cells = assay: In vitro mRNA transfection with HK polyplexes (luciferase mRNA, luciferase activity); assay type: cell-based; settings: mRNA 1 μg, 24 h
Protocol: FIG. 1. Comparison of H3K(+H)4b and H3K4b peptides as carriers of mRNA. To form the HK polyplexes, the mRNA (1 μg) was mixed with 3 different ratios of the HK ([…]) polymer for 30 minutes. The HK polyplexes were then added to the cells for 24 h before the luciferase activity was measured. ****, H3K(+H)4b vs H3K4b, P<0.0001.
In vitro mRNA Transfection. Several HK polymers were examined for their ability to carry a luciferase-expressing mRNA (CleanCap Firefly Luciferase mRNA, Trilink Biotechnologies, Inc, San Diego, CA) into MDA-MB-231 cells (America Type Tissue Culture, Manassas, VA). In brief, 3×10^4 cells were plated into a 24-well plate containing 500 μl of DMEM and 10% fetal bovine serum (ThermoFisher Scientific, Waltham, MA). After 24 h, when the cells were 60 to 80% confluent, the media in each well was changed to Opti-MEM (ThermoFisher Scientific). To prepare HK polyplexes, mRNA (1 μg) in 50 μl of Opti-MEM was briefly mixed well with one of the HK polymers (4 to 12 μg) and maintained at room temperature for 30 min. This polyplex was then added dropwise to the cells. After four h, the Opti-MEM media was removed and replaced with 0.5 ml of DMEM/10% serum (0.5 ml). Twenty-four hours later, the cells were lysed, and the luciferase activity (Promega Corporation, Madison, WI) was measured.
To obtain the data in Table 4, luciferase-expressing mRNA (1 μg) in 50 μl of Opti-MEM was briefly mixed with one of the HK polymers (4, 8, or 12 μg) and maintained at room temperature for 30 min. The resulting polyplexes were added dropwise to the MDA-NM-231 cells and after four h, the Opti-MEM media was removed and replaced with DMEM/10% serum. Twenty-four hours later, the cells were lysed, and the luciferase activity was measured

[1] = Cell viability assay (trypan blue exclusion); assay type: cell-based; settings: human, MDA-MB-231 cells, HK polymer 4 μg or polyplex (4 μg HK; 1 μg mRNA), then 19 h DMEM/10% FBS
Protocol: Cell Viability Assay. MDA-MB-231 cells were seeded at 5.0×10^4/well in a 24-tissue culture plate and incubated overnight in DMEM supplemented with 10% FBS serum. The media was then changed to Opti-MEM and the cells were treated with either the HK polymer (4 μg) or the HK polyplex (4 μg HK; 1 μg mRNA) for 5 h. After the media was changed to DMEM/10% FBS for 19 h, the cell viability was measured using the trypan blue cell exclusion assay (Trypan Blue solution, 0.4%, Sigma-Aldrich, St. Louis, MO).
After the medium was changed to Opti-MEM in cell cultures of the MDA-MB-231 cells used in the experiment described above, either the HK polymer (4 μg) or the HK polyplex (4 μg HK; 1 μg mRNA) was added dropwise to the cells and incubated for 5 h. The media was then changed to DMEM/10% FBS for 19 h and cell viability was determined using the trypan cell exclusion assay.

mRNA = assay: Heparin displacement assays (gel electrophoresis and Sybr Gold dye intercalation); assay type: physicochemical; settings: HK:mRNA 4:1 wt/wt
Protocol: FIG. 4. Heparin Displacement Assays. After HK polyplexes were formed (wt:wt; HK:mRNA; 4 μg:1 μg), different concentrations of heparin […] were incubated with these for 30 min. A. Gel Retardation. The HK polyplexes were loaded on the agarose gel (1%), and electrophoresis was carried out and stained with Sybr Gold. B. Fluorescent dye intercalation. After the HK polyplexes were formed and incubated with several concentrations of heparin, the Sybr Gold nucleic acid dye was incubated with the HK polyplexes for 5 mins. Fluorescence was then measured by a microplate fluorimeter (λex=497 nm, λem=520 nm) (SynergyMx, BioTek). *, P<0.05; ***, P<0.001; H3K4b or H2K vs. H3K(+H)4b.
Heparin Displacement Assays. Heparin displacement assays of HK polyplexes were done with the dye intercalation assay and with gel electrophoresis. A fluorescent assay assessed polyplexes of HK polymer and mRNA (4:1 wt/wt ratio; polymer:mRNA) formed in RNAse/DNAase free water (Corning, Manassas, VA). HK polyplexes were prepared as described previously, followed by the addition of diluted Syber Gold. For detection, working dilutions of the polyplexes (1/5 of volume), water (3/5) and Sybr Gold dye (1/5, 0.2×) were incubated for 5 minutes, and fluorescence was measured by a fluorimeter (Ex=497 nm, Em=520 nm) (SynergyMx, BioTek, Winooski, VT). The control sample was prepared with the same amount of mRNA, water, and Sybr Gold dye. For the heparin displacement, instead of water, heparin salt (Sigma-Aldrich, St. Louis, MO) solutions at different concentrations (0.5, 1, 1.5, 2, 3 μg/μl) were used, and the HK polyplexes were incubated at 37° C. for 30 min before addition of Sybr Gold.
Displacement of mRNA from HK polyplexes with heparin was also done with gel electrophoresis. After HK polyplexes were formed, different concentrations of heparin (0.5, 1.0, 1.5, 2.0, 3.0 μg/μl; volume 20 μl) were incubated with these at 37° C. for 30 min. The polyplexes were then loaded on the agarose gel (1%; 10× BlueJuice Gel loading buffer), and electrophoresis was carried out and stained with SG as described above. […]

[2] = Particle size, polydispersity index (PDI) and zeta potential of polyplexes (Zetasizer); assay type: physicochemical
Protocol: Particle size, polydispersity index (PDI), and zeta potential. The size, PDI, and zeta potential were determined with the Zetasizer (Malvern, Westborough, Mass.) and analyzed with software provided by the instrument manufacturer (Zetasizer software, version 6.2). Using dynamic light scattering at a 90° angle, the size of the particles were reported as the Z-average diameter from the intensity-weighted size distribution. Prior to the measurements, the samples were equilibrated to 25° C. for 2 min. Each measurement had at least ten sub-runs under the automatic mode of the software. The particle size, PDI, and zeta potential data point represent the mean±SD of three measurements. After mixing HK peptides (4 μg) and mRNA (1 μg) in 100 μl of defined media (Opti-MEM, water, or DMEM/8% FBS) for 30 min, 100 μl of additional defined media was added to the polyplex solution (total volume 200 μl) to measure the size and PDI. To determine the zeta potential, 800 μl more of the media was added (total volume 1000 μl), mixed gently, and then added to the disposable zeta cell.
Because different stabilities were observed between the H3K4b and H3K(+H)4b polyplexes, whether the sizes of these polyplexes varied based on the media in which they were prepared was investigated. […] H3K(+H)4b and H3K4b peptides (4 μg) in complex with mRNA (1 μg) were mixed with either Opti-MEM, water, or DMEM/8% FBS […]. After 1 h, the size, PDI, and zeta potential were measured.

[3] = Acid-base titration of HK polymer solutions; assay type: physicochemical; settings: pH titration curves, 5 mg/ml
Protocol: FIG. 2. Titration of different HK peptide solutions. Solutions of polymers (5 mg/ml) (H2K4b, H3K4b, H3K(+H)4b, and H4K4b) were adjusted to pH 3 (initial volume—1 ml) and then […] aliquots of 0.05 N NaOH were stepwise added and the pH measured.
Acid-Base Titration. After polymer solutions (e.g. containing one or more of H2K4b, H3K4b, H3K(+H)4b, and H4K4b) were adjusted to pH 3.0 (5 mg/mil; initial volume—1 mil), aliquots (5 μl) of NaOH (0.05 N) were stepwise added with the pH measured (FiveEasy™ meter; InLab Solids Pro-ISM pH electrode, Mettler Toledo, Columbus, OH). Titration was stopped at about pH 9.0.

[4] = prior studies [34, 35, 45]; cited from earlier work
cytokines = settings: in vitro and in vivo; prior study [45]; cited from earlier work
[5] = polyplex HK 4 μg:mRNA 1 μg in DMEM/8% FBS
[6] = polyplex HK 4 μg:mRNA 1 μg in Opti-MEM
[7] = polyplex HK 4 μg:mRNA 1 μg in Water

Substance: I: KHHHKHHHKHHHKHHHKKKK-NH2 / II: KHHHKHHHKHHHKHHHK / III: KHHHKHHHKHHHKHHHK / IV: KHHHKHHHKHHHKHHHK (amide I:18-IV:C, I:19-III:C, I:20-II:C) [H3K4b]
- RLU/μg-Protein (luciferase activity) (MDA-MB-231 cells; ratio mRNA:polymer 1:4 (wt:wt)): 156.8 ± 41.8 RLU/μg-Protein
- RLU/μg-Protein (luciferase activity) (MDA-MB-231 cells; ratio mRNA:polymer 1:8 (wt:wt)): 62.1 ± 13.2 RLU/μg-Protein
- RLU/μg-Protein (luciferase activity) (MDA-MB-231 cells; ratio mRNA:polymer 1:12 (wt:wt)): 18.1 ± 4.0 RLU/μg-Protein
- viability at 5 h [1]: 95.6%
- binding/release of mRNA and polyplex stability on exposure to heparin (in words) (mRNA): released by the H3K4b polymer more readily than the H3K(+H)4b polymer
- PDI [2, 5]: 0.421
- Size [2, 5]: 578 ± 80.5 nm
- Zeta Potential [2, 5]: −12.1 ± 2.22 mV
- PDI [2, 6]: 0.466
- Size [2, 6]: 2030.7 ± 117.3 nm
- Zeta Potential [2, 6]: −4.20 ± 2.78 mV
- PDI [2, 7]: 0.171
- Size [2, 7]: 199.9 ± 0.8 nm
- Zeta Potential [2, 7]: 16.47 ± 0.74 mV
- buffering profile / buffering capacity (in words) [3]: minimal differences in their buffering profile
- carrier of siRNA (in words) [4]: effective carriers of siRNA
- cytokine induction by siRNA polyplex (in words) (cytokines): induced cytokines to a significantly greater degree
